Laboratory results reported in patent US4442044A, “Process for preparing monoesters and diesters of N-alkyl substituted amino methyl phosphonic acid” (priority 1983, dated 1984).

Key:
Assay in all cases: post-emergent herbicidal activity, greenhouse
Format in all cases: in vivo
Hemp Sesbania = conditions: Table II
Method in brief: (§1)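 Seeds or propagules sown in compacted top soil, grown 2–3 weeks in greenhouse, then sprayed with compound solution/suspension containing ~0.4% emulsifier at tabulated rates. Injury scored visually versus untreated controls at ~2 and 4 weeks after treatment, expressed as a herbicidal activity index.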

Lambsquarters = system: Lambsquarters
Method in brief: as §1

Yellow Nutsedge = conditions: Table I, 4 WAT
Method in brief: as §1

Cocklebur = system: Cocklebur
Method in brief: as §1

Smartweed = system: Smartweed
Method in brief: as §1

Downy Brome = system: Downy Brome
Method in brief: as §1

Wheat = conditions: Table II
Method in brief: as §1

Morningglory = system: Morningglory
Method in brief: as §1

Panicum Spp = conditions: Table II
Method in brief: as §1

Sugar Beet = conditions: Table II
Method in brief: as §1

Barnyardgrass = system: Barnyardgrass
Method in brief: as §1

Rice = conditions: Table II
Method in brief: as §1

Wild Buckwheat = conditions: Table II
Method in brief: as §1

Canada Thistle = conditions: Table I, 4 WAT
Method in brief: as §1

Crabgrass = conditions: Table II
Method in brief: as §1

Sorghum = conditions: Table II
Method in brief: as §1

Johnsongrass = conditions: Table I, 4 WAT
Method in brief: as §1

Quackgrass = conditions: Table I, 4 WAT
Method in brief: as §1

Velvetleaf = system: Velvetleaf
Method in brief: as §1

Soybean = conditions: Table II
Method in brief: as §1

## CCOC(=O)CNCP(=O)(O)OC(C)C(=O)OC (stereo not drawn) [Example 28, propanoic acid, 2-[[[[(2-ethoxy-2-oxoethyl)amino]methyl]hydroxyphosphinyl]oxy]-, methyl ester]
Hemp Sesbania; 2 WAT, 1.12 kg/h
  post-emergent herbicidal activity index: 0 (0-24% control)
Hemp Sesbania; 4 WAT, 5.6 kg/h
  post-emergent herbicidal activity index: 3 (75-99% control)
Lambsquarters; Table I, 4 WAT, 5.6 kg/h
  post-emergent herbicidal activity index: 0 (0-24% control)
Lambsquarters; Table I, 4 WAT, 11.2 kg/h
  post-emergent herbicidal activity index: 3 (75-99% control)
Lambsquarters; Table II, 2 WAT, 1.12 kg/h
  post-emergent herbicidal activity index: 0 (0-24% control)
Lambsquarters; Table II, 4 WAT, 5.6 kg/h
  post-emergent herbicidal activity index: 1 (25-49% control)
Yellow Nutsedge; 5.6 kg/h
  post-emergent herbicidal activity index: 1 (25-49% control)
Yellow Nutsedge; 11.2 kg/h
  post-emergent herbicidal activity index: 3 (75-99% control)
Cocklebur; Table I, 4 WAT, 5.6 kg/h
  post-emergent herbicidal activity index: 1 (25-49% control)
Cocklebur; Table I, 4 WAT, 11.2 kg/h
  post-emergent herbicidal activity index: 2 (50-74% control)
Cocklebur; Table II, 2 WAT, 1.12 kg/h
  post-emergent herbicidal activity index: 0 (0-24% control)
Cocklebur; Table II, 4 WAT, 5.6 kg/h
  post-emergent herbicidal activity index: 2 (50-74% control)
Smartweed; Table I, 4 WAT, 5.6 kg/h
  post-emergent herbicidal activity index: 0 (0-24% control)
Smartweed; Table I, 4 WAT, 11.2 kg/h
  post-emergent herbicidal activity index: 3 (75-99% control)
Smartweed; Table II, 2 WAT, 1.12 kg/h
  post-emergent herbicidal activity index: 0 (0-24% control)
Smartweed; Table II, 4 WAT, 5.6 kg/h
  post-emergent herbicidal activity index: 1 (25-49% control)
Downy Brome; Table I, 4 WAT, 5.6 kg/h
  post-emergent herbicidal activity index: 1 (25-49% control)
Downy Brome; Table I, 4 WAT, 11.2 kg/h
  post-emergent herbicidal activity index: 1 (25-49% control)
Downy Brome; Table II, 2 WAT, 1.12 kg/h
  post-emergent herbicidal activity index: 0 (0-24% control)
Downy Brome; Table II, 4 WAT, 5.6 kg/h
  post-emergent herbicidal activity index: 0 (0-24% control)
Wheat; 2 WAT, 1.12 kg/h
  post-emergent herbicidal activity index: 0 (0-24% control)
Wheat; 4 WAT, 5.6 kg/h
  post-emergent herbicidal activity index: 1 (25-49% control)
Morningglory; Table I, 4 WAT, 5.6 kg/h
  post-emergent herbicidal activity index: 1 (25-49% control)
Morningglory; Table I, 4 WAT, 11.2 kg/h
  post-emergent herbicidal activity index: 3 (75-99% control)
Morningglory; Table II, 2 WAT, 1.12 kg/h
  post-emergent herbicidal activity index: 1 (25-49% control)
Morningglory; Table II, 4 WAT, 5.6 kg/h
  post-emergent herbicidal activity index: 2 (50-74% control)
Panicum Spp; 2 WAT, 1.12 kg/h
  post-emergent herbicidal activity index: 0 (0-24% control)
Panicum Spp; 4 WAT, 5.6 kg/h
  post-emergent herbicidal activity index: 2 (50-74% control)
Sugar Beet; 2 WAT, 1.12 kg/h
  post-emergent herbicidal activity index: 0 (0-24% control)
Sugar Beet; 4 WAT, 5.6 kg/h
  post-emergent herbicidal activity index: 0 (0-24% control)
Barnyardgrass; Table I, 4 WAT, 5.6 kg/h
  post-emergent herbicidal activity index: 2 (50-74% control)
Barnyardgrass; Table I, 4 WAT, 11.2 kg/h
  post-emergent herbicidal activity index: 2 (50-74% control)
Barnyardgrass; Table II, 2 WAT, 1.12 kg/h
  post-emergent herbicidal activity index: 1 (25-49% control)
Barnyardgrass; Table II, 4 WAT, 5.6 kg/h
  post-emergent herbicidal activity index: 3 (75-99% control)
Rice; 2 WAT, 1.12 kg/h
  post-emergent herbicidal activity index: 0 (0-24% control)
Rice; 4 WAT, 5.6 kg/h
  post-emergent herbicidal activity index: 2 (50-74% control)
Wild Buckwheat; 2 WAT, 1.12 kg/h
  post-emergent herbicidal activity index: 0 (0-24% control)
Wild Buckwheat; 4 WAT, 5.6 kg/h
  post-emergent herbicidal activity index: 0 (0-24% control)
Canada Thistle; 5.6 kg/h
  post-emergent herbicidal activity index: 1 (25-49% control)
Canada Thistle; 11.2 kg/h
  post-emergent herbicidal activity index: 1 (25-49% control)
Crabgrass; 2 WAT, 1.12 kg/h
  post-emergent herbicidal activity index: 2 (50-74% control)
Crabgrass; 4 WAT, 5.6 kg/h
  post-emergent herbicidal activity index: 3 (75-99% control)
Sorghum; 2 WAT, 1.12 kg/h
  post-emergent herbicidal activity index: 0 (0-24% control)
Sorghum; 4 WAT, 5.6 kg/h
  post-emergent herbicidal activity index: 2 (50-74% control)
Johnsongrass; 5.6 kg/h
  post-emergent herbicidal activity index: 2 (50-74% control)
Johnsongrass; 11.2 kg/h
  post-emergent herbicidal activity index: 3 (75-99% control)
Quackgrass; 5.6 kg/h
  post-emergent herbicidal activity index: 0 (0-24% control)
Quackgrass; 11.2 kg/h
  post-emergent herbicidal activity index: 2 (50-74% control)
Velvetleaf; Table I, 4 WAT, 5.6 kg/h
  post-emergent herbicidal activity index: 0 (0-24% control)
Velvetleaf; Table I, 4 WAT, 11.2 kg/h
  post-emergent herbicidal activity index: 2 (50-74% control)
Velvetleaf; Table II, 2 WAT, 1.12 kg/h
  post-emergent herbicidal activity index: 0 (0-24% control)
Velvetleaf; Table II, 4 WAT, 5.6 kg/h
  post-emergent herbicidal activity index: 0 (0-24% control)
Soybean; 2 WAT, 1.12 kg/h
  post-emergent herbicidal activity index: 1 (25-49% control)
Soybean; 4 WAT, 5.6 kg/h
  post-emergent herbicidal activity index: 1 (25-49% control)
